Results published in the NIST ThermoML archive (doi:10.1021/je0501078).

Legend:
[1] = Crystal
[2] = Molar enthalpy of transition or fusion; conditions: Crystal
[3] = molar heat capacity at constant pressure; conditions: 101.33 kPa

O=C1CCCCC1C1(O)CCCCC1 (centres undefined) [1'-hydroxy-[1,1'-bicyclohexyl]-2-one]
Conditions | mass density, 292 K [kg/m3] | molar heat capacity at constant pressure, 306.75 K [J/K/mol] | molar heat capacity at constant pressure, 310 K [J/K/mol] | molar heat capacity at constant pressure, 320 K [J/K/mol] | molar heat capacity at constant pressure, 330 K [J/K/mol] | molar heat capacity at constant pressure, 340 K [J/K/mol] | molar heat capacity at constant pressure, 350 K [J/K/mol] | molar heat capacity at constant pressure, 360 K [J/K/mol] | molar heat capacity at constant pressure, 370 K [J/K/mol]
[1], 101.33 kPa, Pycnometric method | 1140 | – | – | – | – | – | – | – | –
[3], Liquid, Large sample (1 g) DSC | – | 350 | 352 | 359.3 | 367.5 | 376.8 | 387.2 | 398.7 | 411.2

Conditions | Molar enthalpy of transition or fusion, [2] [kcal/mol] | Triple point temperature, [1] [K]
Adiabatic calorimetry | 4.974 | 306.75
DSC | 4.95 | 306.9

[3], Crystal
Conditions | molar heat capacity at constant pressure [J/K/mol]
5 K | 0.496
10 K | 3.909
15 K | 10.08
20 K | 17.48
25 K | 25.17
30 K | 32.48
35 K | 39.18
40 K | 45.5
45 K | 51.25
50 K | 56.58
60 K | 66.47
70 K | 75.55
80 K | 84.14
90 K | 92.37
100 K | 100.7
110 K | 108.6
120 K | 116.4
130 K | 124.2
140 K | 132
150 K | 139.8
160 K | 147.7
170 K | 155.8
180 K | 163.9
190 K | 171.9
200 K | 180
210 K | 188.2
220 K | 196.6
230 K | 205.1
240 K | 213.9
250 K | 223.2
260 K | 233.2
270 K | 243.9
280 K | 255.5
290 K | 268
300 K | 281.5
306.75 K | 291.3
